In the METLIN SMRT retention time set (Domingo-Almenara et al. 2019):

Test: gradient 5% acetonitrile 3 min, to 50% in 2 min, to 85% in 15 min, held 3 min, 100 µL/min
Conditions: column: Zorbax Extend-C18 2.1 x 50 mm; eluents: water / acetonitrile, 0.1% formic acid
In short: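 Data were gathered over 3 months by HPLC coupled to a quadrupole time-of-flight mass spectrometer, operated in positive and negative ionization mode. Mixtures of ~100 pure standards ran on a Zorbax Extend-C18 column (2.1 × 50 mm, 1.8 μm) at 100 μL/min, with water and acetonitrile each containing 0.1% formic acid and dead and dwell volumes of 40 μL and 900 μL. Retention time was read from adduct peaks picked by computer and checked manually.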

| SMILES | RP-LC retention time [s] |
| --- | --- |
| Cc1ccc(CNC(=O)CCCN2C(=O)CCn3nc(-c4cccn4C)cc32)cc1 | 795 |
| CC(C)Cn1c(=O)c(N2CCN(C(=O)NCCc3ccccc3)CC2)nc2ccncc21 | 668 |
| COc1ccc(Cl)cc1NC(=O)c1c(OC)cc(=O)n2c1CCCC2 | 801 |
| O=C(NCc1cccnc1-c1ccc(F)cc1)c1cc(F)cc(F)c1 | 710 |
| O=C(c1cc2c(s1)-c1ccsc1CC2)N1CCN(c2ccccn2)CC1 | 698 |
| O=C1CCCc2cc(S(=O)(=O)N3CCC(C(=O)NCc4ccc5c(c4)OCO5)CC3)ccc2N1 | 706 |
| COCCCNC(=O)C1CCCN(c2ccc(-c3ccc(C)c(C)c3)nn2)C1 (centres undefined) | 647 |
| Cc1ccc(NC(=O)Cn2nc3c(Oc4ccc(C(C)C)cc4)nccn3c2=O)c(C)c1 | 1050 |
| CN(C)c1ccc(C(=O)N2CCN(c3cc(-c4ccccc4)[nH]n3)CC2)cc1 | 757 |
| COc1ccc(OC)c(NC(=O)c2cc3c(n(-c4ccc(F)cc4)c2=O)CCCC3=O)c1 | 930 |
| COc1ccc(Cl)cc1S(=O)(=O)N1CCC(C(=O)Nc2ccccc2)CC1 | 913 |
| CCCN1CCN(CCCNc2nc(-c3ccc(OC)cc3)nc3ccccc23)CC1 | 576 |
| CCn1nccc1-c1cccc(-c2noc(C3CCN(S(=O)(=O)c4ccc(Cl)cc4)CC3)n2)c1 | 932 |
| Cc1nc2ccn(Cc3ccco3)c(=O)c2cc1C(=O)NCCc1c[nH]c2ccccc12 | 768 |
| CCN1C(=O)NC(c2ccc(C)cc2C)C2=C1CN(CCC(=O)N1CCCC1)C2=O (centres undefined) | 623 |
| CCOCC(=O)Nc1ccc2c(c1)Sc1ncccc1C(=O)N2C(C)C | 764 |
| O=C(Nc1cccc(-c2ccc(N3CCCC3)nn2)c1)Nc1c(F)cccc1F | 690 |
| O=C(NC1CCCC1)C1CCCN(c2ccc(=O)n(-c3cccc(Cl)c3)n2)C1 (centres undefined) | 845 |
| COc1ccccc1N1CCN(CCNC(=O)C(=O)NC2CCCCC2)CC1 | 599 |
| O=S(=O)(c1ccc(-c2ccno2)s1)N1CCN(c2ccccn2)CC1 | 680 |
| Clc1ccc(-c2nnc(Cc3nc(-c4cccs4)no3)o2)cc1 | 1000 |
| Cc1ccc(C)c(N2CCN(c3ccnc(SCC(=O)Nc4ccc(Cl)cc4)n3)CC2)c1 | 967 |
| COCCNC(=O)COc1cc(C)nc(-c2ccc(Cl)cc2)n1 | 828 |

| SMILES | RP-LC retention time [s] |
| --- | --- |
| CCOc1ccccc1C(=O)Nc1ccc2c(c1)Sc1ncccc1C(=O)N2C(C)C | 871 |
| CCN1CCN(c2c(C(=O)c3ccccc3)cnc3cc4c(cc23)OCO4)CC1 | 563 |
| O=C(NCC1CCCO1)c1cc(S(=O)(=O)N2CCCCCC2)ccc1Cl (centres undefined) | 842 |
| COc1ccc(-c2noc(C3CCCN3C(=O)c3cc(F)cc(F)c3)n2)cc1OC (centres undefined) | 937 |
| CCn1cc(C(=O)NCCC(C)C)c2nn(-c3ccccc3)c(=O)c-2c1 | 878 |
| CCOC(=O)Cc1c(C(=O)OCC)nnc2c(-c3ccccc3)c(C)nn12 | 1080 |
| O=C(c1ccc(-c2cccnc2)nc1)N1CCN(c2ccccc2)CC1 | 663 |
| Cc1cc(NC(=O)c2cn3c(n2)CSCC3)ccc1F | 743 |
| Cc1ccc(-c2csc(Nc3ccccc3C)n2)cc1 | 1240 |
| CSc1cccc(NC(=O)N2CC=C(c3cn(C)c4ncccc34)CC2)c1 | 873 |
| CC1CCN(C(=O)C2CCN(S(=O)(=O)c3cc(C(=O)N4CCCCC4)n(C)c3)CC2)CC1 | 803 |
| COc1cccc(NC(=O)Cn2nc3nc(N4CCCC(C)C4)ccn3c2=O)c1 (centres undefined) | 768 |
| CC(C)c1ccc(S(=O)(=O)N(CC(=O)N2CCNCC2)CC2CCCO2)cc1 (centres undefined) | 602 |
| CCc1cccc(NC(=O)Cn2c(=O)c(CCC(=O)NCC(C)C)nc3ccccc32)c1 | 880 |
| O=C(Nc1cc(F)ccc1Cl)c1csc(-c2ccc(N3CCCC3)nc2)n1 | 994 |
| COc1ccc(OC)c(NC(=O)c2cc(C(C)(C)C)n3nccc3n2)c1 | 768 |
| Cn1nnnc1SCCNCc1ccc2c(c1)OCCO2 | 577 |
| O=C1NCN(c2ccccc2)C12CCN(CCCC(c1ccc(F)cc1)c1ccc(F)cc1)CC2 | 892 |
| COc1ccc(OC)c(-c2cc(C(=O)N3CCN(Cc4ccsc4)CC3)n(C)n2)c1 | 580 |
| O=C(NCc1ccccc1)c1cccn1Cc1noc(-c2ccccc2)n1 | 981 |
| CCNc1cc(N2CCCC(CCC(=O)N3CCN(c4ncccn4)CC3)C2)ncn1 (centres undefined) | 624 |
| CC(=O)N1CCCC1c1nc2ccccc2n1CC(=O)N1CCCCC1 (centres undefined) | 594 |
| N#Cc1cccc(C(=O)N2CCCC2c2nc(-c3cccc(C(F)(F)F)c3)no2)c1 (centres undefined) | 1050 |

| SMILES | RP-LC retention time [s] |
| --- | --- |
| CCN1CCN(CC2=C(C(=O)OC)C(c3ccccc3C)NC(=O)N2)CC1 (centres undefined) | 615 |
| Cc1nc(-c2ccc(-c3noc(CNS(=O)(=O)c4ccccc4)n3)cc2)cs1 | 960 |
| O=C(c1ccsc1)N1CCOc2ccc(N3CCOCC3)cc2C1 | 701 |
| O=C(NCCn1c(C(F)(F)F)nc2cccnc21)c1ccc(Br)o1 | 740 |
| O=C(NC1CCN(Cc2ccccc2)CC1)C1CC(=O)N(CCc2ccccc2)C1 (centres undefined) | 600 |
| CN(C)S(=O)(=O)c1ccc(N)c([N+](=O)[O-])c1 | 773 |
| O=C(N[C@H]1C[C@@H]2C[C@H]1CN2C(=O)c1ccc(F)c(Cl)c1)c1ccccc1 | 772 |
| COc1ccc(NC(=O)N(C)CCc2noc(COc3ccc(F)cc3)n2)c(OC)c1 | 837 |
| Cc1ccc(-c2ncc(NC(=O)c3ccc(Cl)s3)cn2)cc1 | 1140 |
| CCCc1ccc(S(=O)(=O)N2CCN(c3cnn4c(C)nnc4c3)CC2)cc1 | 805 |
| Cn1nc(N2CCC(NC(=O)C3CCCCC3)C2)ccc1=O (centres undefined) | 649 |
| CCn1ccc(C(=O)N2CCCC2(CO)Cc2ccccc2)n1 (centres undefined) | 790 |
| COc1ccc(-c2nsc(SCC(=O)N3CCCCCC3)n2)cc1 | 846 |
| Cc1cc(C)cc(Nc2nc(C)cc3nn(CC(=O)NCc4ccccc4)c(=O)n23)c1 | 1080 |
| O=C(NC1CCCCC1)c1csc(-c2ccc(N3CCCC3)nc2)n1 | 739 |
| COc1ccc(N2CCN(C(=O)CCC(=O)N3CCCn4nc(C)cc43)CC2)cc1 | 606 |
| Cc1ccc(-n2c(=O)c3c(cc(C)n3C)n(CC(=O)Nc3cccc(Cl)c3C)c2=O)cc1 | 918 |
| Cc1ccc(-n2nc(CO)c(C(=O)NC3CC3)n2)cc1C | 890 |
| Cc1cc(Cl)ccc1S(=O)(=O)N1CCN(c2nc3ccncc3n(C)c2=O)CC1 | 615 |
| COc1ccc(CCC(=O)N2CCC3(CC2)C(=O)N(C)c2ccccc23)cc1 | 867 |
| Cc1ccc(-c2noc(Cn3cnc4c(oc5ccccc54)c3=O)n2)cc1 | 999 |
| Cc1ccc2c(c1)OCC(=O)N2CC(=O)NC1CC1 | 701 |
| CCC(=O)N1CCc2c(-c3ccc(OC)cc3)cccc2[C@H]1C | 1030 |

| SMILES | RP-LC retention time [s] |
| --- | --- |
| CCOC(=O)C1CCN(c2nnc(-c3nnc(CC)o3)c3ccccc23)CC1 | 977 |
| O=S(=O)(NCCc1ccccn1)c1ccc2ccccc2c1 | 574 |
| COc1ccc(Cl)cc1S(=O)(=O)N(C)C1CCc2nn(CC3CC3)c(=O)n2CC1 (centres undefined) | 958 |
| COC(=O)c1cc2c(=O)n(-c3ccc(Cl)c(Cl)c3)ccc2nc1C | 915 |
| Cc1ccnc(OCC(=O)Nc2ccc(OC(F)(F)F)cc2)n1 | 771 |
| Cc1cccn2c(Nc3ccc4c(c3)OCCO4)c(-c3ccc(N(C)C)cc3)nc12 | 735 |
| COc1ccc(CC(=O)NC2CCN(c3cc(-c4ccc(Cl)cc4)[nH]n3)C2)cc1 (centres undefined) | 762 |
| CC(=O)Nc1ccc(CCc2nc3ccc(C(=O)NCC4CCCO4)cc3[nH]2)cc1 (centres undefined) | 562 |
| COc1ccc2c(c1)CCc1sc(NC(=O)c3ccc(Cl)cc3)nc1-2 | 1160 |
| COc1cccc(-c2n[nH]c3c2C(c2ccc(OC)cc2OC)NC3=O)c1 (centres undefined) | 753 |
| COc1ccc(C2(CNC(=O)CCc3c(C)noc3C)CCOCC2)cc1 | 660 |
| COc1ccc(Cl)cc1NC(=O)N1CCC(COCc2ccccc2)CC1 | 1120 |
| Cc1[nH]c(C(=O)N2CCCC(C(=O)NCc3cccc(Cl)c3)C2)c(C)c1C(=O)OC(C)C (centres undefined) | 885 |
| COc1ccc2[nH]cc(CCNC(=O)C3CCN(S(=O)(=O)c4ccc5c(ccn5C)c4)CC3)c2c1 | 851 |
| O=C1Nc2ccccc2C(=O)N2CCCC12 (centres undefined) | 590 |
| CC(C)CN1CCn2cc(S(=O)(=O)Nc3ccc(Cl)cc3F)cc2C1=O | 858 |
| Cc1ccc(CN2C(=O)CN(S(C)(=O)=O)CC2(C)C(=O)NC2CCCCCCC2)cc1 (centres undefined) | 930 |
| Cc1cc(-c2ccc(S(=O)(=O)N3CCC(C(=O)NCC4CC4)CC3)o2)n[nH]1 | 702 |
| CSc1ccc(CNC(=O)CN2CCc3[nH]c4c(C)c(C)ccc4c(=O)c3C2)cc1 | 638 |
| O=C(NCc1ccccn1)c1cccc(N2CCNC(c3ccccc3)C2)n1 (centres undefined) | 564 |
